Measured values taken from doi:10.1101/2025.07.30.667614, “Steric control of signaling bias in the immunometabolic receptor GPR84” (bioRxiv, 2025).

How the values were obtained:
[1] = molecular target: T1, GPR84 (Homo sapiens, UniProt Q9NQS5); experiment: CHO-K1-based HitHunter cAMP inhibition assay; assay type: cell-based; settings: wild type GPR84; for EC50: CHO-K1 cells, forskolin 25 μM, read-out: cAMP pEC50 ± SEM (converted); for Emax: normalised to capric acid (100 μM), read-out: cAMP %Emax ± SEM
T1 sequence (Q9NQS5 whole entry): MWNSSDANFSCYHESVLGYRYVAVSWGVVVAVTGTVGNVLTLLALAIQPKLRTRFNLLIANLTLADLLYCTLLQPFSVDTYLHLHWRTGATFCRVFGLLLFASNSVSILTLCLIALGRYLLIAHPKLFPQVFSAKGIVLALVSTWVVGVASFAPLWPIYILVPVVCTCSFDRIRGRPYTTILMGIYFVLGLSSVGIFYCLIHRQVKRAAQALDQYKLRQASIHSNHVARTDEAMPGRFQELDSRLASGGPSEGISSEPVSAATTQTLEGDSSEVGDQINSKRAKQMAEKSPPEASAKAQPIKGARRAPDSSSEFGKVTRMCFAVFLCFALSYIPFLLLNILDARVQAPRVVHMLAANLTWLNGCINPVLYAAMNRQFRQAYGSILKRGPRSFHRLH
Procedure: CHO-K1 cells stably expressing human GPR84 (DiscoverX 95-0158C2) were seeded in 384-well plates at 15,000 cells per well in 20 μL of F12 medium supplemented with 10% fetal bovine serum (FBS), 19 mM HEPES, and 1% penicillin-streptomycin. After overnight incubation at 37 °C and 5% CO2, the medium was removed and replaced with PBS containing 0.1% BSA. Cells were stimulated for 30 min with forskolin (25 μM) and test compounds prepared in Dulbecco’s PBS (DPBS) with 0.1% BSA. Compounds were dissolved in DMSO and diluted appropriately. cAMP levels were quantified using the HitHunter® cAMP Assay for Small Molecules (DiscoverX 90-0075SM2) according to the manufacturer’s protocol. Luminescence was measured 18 h post-assay using a PHERAstar® FS plate reader (BMG Labtech).

[2] = molecular target: T1, GPR84; experiment: CHO-K1-based PathHunter β-arrestin-2 recruitment assay; assay type: cell-based; design: host or cells: CHO-K1; settings: for change in efficacy in β-arrestin-2 recruitment: compared to OX04929 (so in the source); for Emax: read-out: β-arrestin-2 %Emax ± SEM; for EC50: wild type GPR84, CHO-K1 PathHunter, read-out: β-arrestin-2 pEC50 ± SEM (converted)
Procedure: Cells were stimulated with test ligands for 90 min. Compounds were prepared at 5× concentration in DPBS containing 0.1% BSA and 0.125% Tween-80 to minimise aggregation. β-arrestin recruitment was quantified using the PathHunter® β-Arrestin Assay (DiscoverX 93-0001) following the manufacturer’s instructions. Luminescence was recorded after 18 h using a PHERAstar® FS plate reader.

[3] = molecular target: T2, GPR84 N104A (GPR84-Gi2α fusion protein) (Homo sapiens, UniProt Q9NQS5, N104A); experiment: [35S]GTPγS binding assay; assay type: biochemical; settings: [35S]GTPγS; N104A; read-out: Emax ± SEM
T2 construct: FLAG (N); Gαi2-Cys352Ile (fusion partner) (C); expressed in transfected cells
T2 sequence (Q9NQS5 whole entry N104A, the tested form may be a part): as the sequence (Q9NQS5 whole entry) above, with N104A counted along it
Procedure: (§1) Membranes were generated from Flp-In™ T-REx™ 293 cells following 100 ng/ml doxycycline treatment to induce receptor expression. Cells were washed with ice-cold phosphate-buffered saline (PBS), removed from dishes by scraping and centrifuged at 1,800 x g for 5 min at 4 °C. Pellets were resuspended in TE buffer (10mM Tris-HCl, 0.1 mM EDTA; pH 7.4) containing a protease inhibitor mixture and homogenized with a 5 ml hand-held homogenizer. Samples were centrifuged at 450 x g for 5 min at 4 °C and the supernatant was further centrifuged at 90,000 x g for 45 min at 4 °C. The resulting pellet was resuspended in TE buffer and protein content was assessed using a BCA protein assay kit.
(§2) Prepared membrane protein (3 μg per well) was incubated in assay buffer (20 mM HEPES, 5 mM MgCl2, 160 mM NaCl, 0.05 % fatty-acid-free bovine serum albumin; pH 7.4) containing the indicated ligand concentrations. The reaction was initiated by addition of [^35S]GTPγS (100 nCi per reaction) with 1 μM GDP, and incubated at 30 °C for 60 min. The reaction was terminated by rapid vacuum filtration through GF/C glassfibre filter-bottom 96-well microplates using a UniFilter FilterMate Harvester (PerkinElmer). Unbound radioligand was removed from filters by three washes with ice-cold PBS. Ultima Gold™ XR was added to dried filters, and [^35S]GTPγS binding quantified by liquid scintillation spectroscopy.

[4] = molecular target: T3, GPR84 N362S (Homo sapiens, UniProt Q9NQS5, N362S); experiment: [35S]GTPγS binding assay; assay type: biochemical; settings: [35S]GTPγS; N362S; read-out: Emax ± SEM
T3 construct: FLAG (N); Gαi2-Cys352Ile (fusion partner) (C); expressed in transfected cells
T3 sequence (Q9NQS5 whole entry N362S, the tested form may be a part): as the sequence (Q9NQS5 whole entry) above, with N362S counted along it
Procedure: as §1, §2

[5] = molecular target: T4, GPR84 R172A (GPR84-Gi2α fusion protein) (Homo sapiens, UniProt Q9NQS5, R172A); experiment: [35S]GTPγS binding assay; assay type: biochemical
T4 construct: FLAG (N); Gαi2-Cys352Ile (fusion partner) (C); expressed in transfected cells
T4 sequence (Q9NQS5 whole entry R172A, the tested form may be a part): as the sequence (Q9NQS5 whole entry) above, with R172A counted along it
Procedure: as §1, §2

[6] = molecular target: T5, GPR84 S169A (GPR84-Gi2α fusion protein) (Homo sapiens, UniProt Q9NQS5, S169A); experiment: [35S]GTPγS binding assay; assay type: biochemical; settings: [35S]GTPγS; S169A; read-out: Emax ± SEM
T5 construct: FLAG (N); Gαi2-Cys352Ile (fusion partner) (C); expressed in transfected cells
T5 sequence (Q9NQS5 whole entry S169A, the tested form may be a part): as the sequence (Q9NQS5 whole entry) above, with S169A counted along it
Procedure: as §1, §2

[7] = molecular target: T6, GPR84 T167A (GPR84-Gi2α fusion protein) (Homo sapiens, UniProt Q9NQS5, T167A); experiment: [35S]GTPγS binding assay; assay type: biochemical; settings: [35S]GTPγS; T167A; read-out: Emax ± SEM
T6 construct: FLAG (N); Gαi2-Cys352Ile (fusion partner) (C); expressed in transfected cells
T6 sequence (Q9NQS5 whole entry T167A, the tested form may be a part): as the sequence (Q9NQS5 whole entry) above, with T167A counted along it
Procedure: as §1, §2

[8] = molecular target: T7, GPR84 W360A (GPR84-Gi2α fusion protein) (Homo sapiens, UniProt Q9NQS5, W360A); experiment: [35S]GTPγS binding assay; assay type: biochemical; settings: [35S]GTPγS; W360A; read-out: Emax ± SEM
T7 construct: FLAG (N); Gαi2-Cys352Ile (fusion partner) (C); expressed in transfected cells
T7 sequence (Q9NQS5 whole entry W360A, the tested form may be a part): as the sequence (Q9NQS5 whole entry) above, with W360A counted along it
Procedure: as §1, §2

[9] = molecular target: T8, GPR84 Y332A (Homo sapiens, UniProt Q9NQS5, Y332A); experiment: [35S]GTPγS binding assay; assay type: biochemical; settings: [35S]GTPγS; Y332A; read-out: Emax ± SEM
T8 construct: FLAG (N); Gαi2-Cys352Ile (fusion partner) (C); expressed in transfected cells
T8 sequence (Q9NQS5 whole entry Y332A, the tested form may be a part): as the sequence (Q9NQS5 whole entry) above, with Y332A counted along it
Procedure: as §1, §2

[10] = molecular target: T9, GPR84 Y332F (Homo sapiens, UniProt Q9NQS5, Y332F); experiment: [35S]GTPγS binding assay; assay type: biochemical; settings: [35S]GTPγS; Y332F; read-out: Emax ± SEM
T9 construct: FLAG (N); Gαi2-Cys352Ile (fusion partner) (C); expressed in transfected cells
T9 sequence (Q9NQS5 whole entry Y332F, the tested form may be a part): as the sequence (Q9NQS5 whole entry) above, with Y332F counted along it
Procedure: as §1, §2

[11] = molecular target: T10, GPR84 Y69A (GPR84-Gi2α fusion protein) (Homo sapiens, UniProt Q9NQS5, Y69A); experiment: [35S]GTPγS binding assay; assay type: biochemical; settings: [35S]GTPγS; Y69A; read-out: Emax ± SEM
T10 construct: FLAG (N); Gαi2-Cys352Ile (fusion partner) (C); expressed in transfected cells
T10 sequence (Q9NQS5 whole entry Y69A, the tested form may be a part): as the sequence (Q9NQS5 whole entry) above, with Y69A counted along it
Procedure: as §1, §2

[12] = molecular target: T11, GPR84 Y81A (GPR84-Gi2α fusion protein) (Homo sapiens, UniProt Q9NQS5, Y81A); experiment: [35S]GTPγS binding assay; assay type: biochemical; settings: [35S]GTPγS; Y81A; read-out: Emax ± SEM
T11 construct: FLAG (N); Gαi2-Cys352Ile (fusion partner) (C); expressed in transfected cells
T11 sequence (Q9NQS5 whole entry Y81A, the tested form may be a part): as the sequence (Q9NQS5 whole entry) above, with Y81A counted along it
Procedure: as §1, §2

[13] = molecular target: GPR84-WT (GPR84-Gi2α fusion protein) (Homo sapiens, UniProt Q9NQS5); experiment: [35S]GTPγS binding assay; assay type: biochemical; settings: [35S]GTPγS, GPR84-WT; for EC50: Extended Data Table 3, read-out: pEC50 ± SEM (converted)
Sequence of GPR84-WT (GPR84-Gi2α fusion protein) (Q9NQS5 whole entry, the tested form may be a part): as the sequence (Q9NQS5 whole entry) above
Sequence of GPR84-WT (GPR84-Gi2α fusion protein) (P04899 with tags, fused parts or gaps C352I partner): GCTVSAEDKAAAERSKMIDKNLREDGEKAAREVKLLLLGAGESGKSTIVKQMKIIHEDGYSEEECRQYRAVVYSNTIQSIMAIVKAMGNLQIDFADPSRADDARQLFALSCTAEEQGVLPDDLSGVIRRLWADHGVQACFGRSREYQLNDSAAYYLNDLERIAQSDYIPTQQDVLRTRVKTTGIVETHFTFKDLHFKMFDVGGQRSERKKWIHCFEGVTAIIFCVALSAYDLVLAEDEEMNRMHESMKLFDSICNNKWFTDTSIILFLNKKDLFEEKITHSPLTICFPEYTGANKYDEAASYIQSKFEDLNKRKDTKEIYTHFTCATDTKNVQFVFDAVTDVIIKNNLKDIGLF
Procedure: as §1, §2

[14] = molecular target: T12, wild type GPR84 (Homo sapiens, UniProt Q9NQS5); experiment: pThr263/pThr264 immunoblot of immunoprecipitated GPR84-eYFP; assay type: cell-based; settings: 1 μM
T12 construct: expressed in transfected cells
T12 sequence (Q9NQS5 whole entry): as the sequence (Q9NQS5 whole entry) above
Procedure: eYFP-linked receptor constructs were immunoprecipitated from 200 μl cell lysates using GFP-Trap® agarose beads (Proteintech) according to manufacturer’s instructions. Immunocomplexes were washed three times in washing buffer, resuspended in 100 μl 2 × SDS-PAGE sample buffer and incubated at 60 °C for 10 min. Following centrifugation at 2500g for 5 min, 20 μl of immunoprecipitated proteins was resolved by SDS-PAGE on 4% to 12% BisTris gels. After separation, the proteins were transferred electrophoretically onto nitrocellulose membrane, which was then blocked using 5% bovine serum albumin (BSA) in Tris-buffered saline (TBS, 50 mM Tris-Cl, 150 mM NaCl, pH 7.6) for 1 h at room temperature on an orbital shaker. The membrane was then incubated with appropriate primary antibody in 5% BSA in TBS supplemented with 0.1% Tween (TBS-T) overnight at 4 °C. Anti-pThr^263/pThr^264 antiserum was diluted 1:2000 and anti-GFP was diluted 1:10,000. Subsequently, the membrane was washed (3 × 10 min with TBS-T) and incubated for 2 h with anti-rabbit secondary antibody diluted 1:10,000 in 5% BSA in TBS-T. After washing (3 × 10 min with TBS-T), proteins were detected using an Odyssey imaging system (Licor) according to the manufacturer’s instructions.

| EC50 [1] [nM] | Emax [1] [%] | change in efficacy in β-arrestin-2 recruitment [2] | Emax [2] [%] | EC50 [2] [nM] | Compound | other results |
| --- | --- | --- | --- | --- | --- | --- |
| 0.00398 | 103 ± 3.7 | no significant change | 9 ± 3 |  | [O-][n+]1cc(O)cc(CCCCc2ccc(Cl)c(C3CC3)c2)c1 [OX04965] |  |
| 0.17 | 107 ± 5.6 | no significant change | 5 ± 1.5 |  | CC1(c2cc(CCCCc3cc(O)c[n+]([O-])c3)ccc2Cl)CC1 [OX04966] |  |
|  | 100 ± 0.8 |  | 100 |  | CCCCCCCc1cc(O)c[n+]([O-])c1 [OX04539] | Emax [3]: 150 ± 23%; Emax [4]: 196 ± 32%; Emax [5]: 42 ± 4%; Emax [6]: 84 ± 4%; Emax [7]: 139 ± 7%; Emax [8]: 94 ± 13%; Emax [9]: 57 ± 10%; Emax [10]: 167 ± 2%; Emax [11]: 101 ± 14%; Emax [12]: 134 ± 5%; Emax ([13]; Extended Data Tables 1 and 5, read-out: Emax ± SEM): 150 ± 14%; phosphorylation of Thr263 and Thr264 (immunoblot) [14]: promoted phosphorylation |
| 0.0407 | 99 ± 0.1 |  | 72 ± 1.3 | 70.8 | [O-][n+]1cc(O)cc(CCCCc2ccc(Cl)c(F)c2)c1 [OX04958] |  |
| 0.0204 | 97 ± 0.7 |  | 81 ± 5.3 | 110 | [O-][n+]1cc(O)cc(CCCCc2ccc(Cl)cc2)c1 [OX04540] |  |
| 0.00646 | 106 ± 3.8 |  | 15 ± 1.1 | 37.2 | C#Cc1cc(CCCCc2cc(O)c[n+]([O-])c2)ccc1Cl [OX04963] |  |
|  |  |  |  |  | Fc1cc(F)c2[nH]cc(Cc3c[nH]c4c(F)cc(F)cc34)c2c1 [PSB-16671, di(5,7-difluoro-1H-indole-3-yl)methane, reference compound] | Emax [4]: 100%; Emax [9]: 100%; Emax [10]: 100% |
| 0.0389 | 102 ± 3 |  | 46 ± 5.8 | 209 | [O-][n+]1cc(O)cc(CCCCc2ccc(Cl)c(Cl)c2)c1 [OX04957] |  |
| 0.00724 | 95 ± 11.5 |  | 24 ± 2.3 | 151 | [O-][n+]1cc(O)cc(CCCCc2ccc(Cl)c(C(F)F)c2)c1 [OX04959] | EC50 [13]: 3.98 nM |
| 0.0145 | 94 ± 7.4 | no significant change | 9 ± 1.4 |  | CC(C)c1cc(CCCCc2cc(O)c[n+]([O-])c2)ccc1Cl [OX04964] |  |
| 0.00912 | 98 ± 2.1 |  | 34 ± 6 | 138 | [O-][n+]1cc(O)cc(CCCCc2ccc(Cl)c(Br)c2)c1 [OX04956] |  |
| 0.00933 | 97 ± 3.4 | no significant change | 18 ± 2.2 | 178 | C=Cc1cc(CCCCc2cc(O)c[n+]([O-])c2)ccc1Cl [OX04962] |  |
| 0.0102 | 107 ± 2.1 |  | 45 ± 1.2 | 447 | [O-][n+]1cc(O)cc(CCCCc2ccc(Cl)c(CF)c2)c1 [OX04960] | EC50 [13]: 6.31 nM |
| 0.0112 | 103 ± 3.6 | no significant change | 21 ± 0.3 | 39.8 | CCc1cc(CCCCc2cc(O)c[n+]([O-])c2)ccc1Cl [OX04961] |  |
| 0.0355 | 101 ± 1.5 |  | 21 ± 2.9 | 263 | [O-][n+]1cc(O)cc(CCCCc2ccc(Cl)c(CO)c2)c1 [OX04955] |  |
